PMC11213733, “Computational approaches identify a transcriptomic fingerprint of drug-induced structural cardiotoxicity” (Cell Biology and Toxicology, 2024)
Where two headings read alike, the source gives them in different places.

Legend:
cardiac microtissues [1] = assay: Ingenuity Pathway Analysis over-representation of differentially expressed genes (activation Z-score); assay type: cell-based, human; details: 48hr high; Group 2
cardiac microtissues [2] = assay: Targeted qRT-PCR of ATAD3C, CDH13, IL6, PTX3, SLC7A5, UCHL1 in cardiac microtissues; assay type: cell-based, human; details: Sorafenib 3.74 µM, Sunitinib 3.53 µM, Dasatinib 10.8 µM; for activity at 3.53 µM: Homo sapiens, read-out: % of control
Description: The experiment was performed with three technical replicates across 1-2 independent replicates.

cardiac microtissues [3] = assay: ATP depletion (CellTiter Glo Luminescent Cell Viability Assay) in cardiac microtissues; assay type: cell-based, human; details: the concentration is the IC30 of ATP depletion, or cell death caused
Description: Cellular ATP concentrations were also assessed using the CellTiter Glo® Luminescent Cell Viability Assay as per the manufacturer’s instructions (Promega).

[4] = ref FDA label, cited from earlier work
cardiac microtissues [5] = assay: Transcriptomic profiling (mRNA-seq) and DESeq2 differential gene expression analysis in cardiac microtissues; details: absolute log2(Fold-Change) > 1, FDR p ≤ 0.05

CCN(CC)CCNC(=O)c1c(C)[nH]c(/C=C2\C(=O)Nc3ccc(F)cc32)c1C [Sunitinib Malate]
activation Z-score: Actin Cytoskeleton Signaling (cardiac microtissues [1]): -3.317 | activation Z-score: Actin Nucleation by ARP-WASP Complex (cardiac microtissues [1]): -2.646 | activation Z-score: Acute Phase Response Signaling (cardiac microtissues [1]): -2.84 | activation Z-score: Adrenomedullin signaling pathway (cardiac microtissues [1]): -2.53 | activation Z-score: Apelin Cardiac Fibroblast Signaling Pathway (cardiac microtissues [1]): 2.236 | activation Z-score: Apelin Liver Signaling Pathway (cardiac microtissues [1]): -2.449 | activation Z-score: Aryl Hydrocarbon Receptor Signaling (cardiac microtissues [1]): -0.632 | activation Z-score: Breast Cancer Regulation by Stathmin1 (cardiac microtissues [1]): -3 | activation Z-score: CD40 Signaling (cardiac microtissues [1]): -2 | activation Z-score: CLEAR Signaling Pathway (cardiac microtissues [1]): -0.5 | activation Z-score: Cardiac Hypertrophy Signaling (Enhanced) (cardiac microtissues [1]): -3.53 | activation Z-score: Cell Cycle: G2/M DNA Damage Checkpoint Regulation (cardiac microtissues [1]): -3 | activation Z-score: Colorectal Cancer Metastasis Signaling (cardiac microtissues [1]): -3.578 | activation Z-score: Cyclins and Cell Cycle Regulation (cardiac microtissues [1]): 2.333 | activation Z-score: ERK5 Signaling (cardiac microtissues [1]): -2 | activation Z-score: Endothelin-1 Signaling (cardiac microtissues [1]): -2.496 | activation Z-score: G-Protein Coupled Receptor Signaling (cardiac microtissues [1]): -3.212 | activation Z-score: GP6 Signaling Pathway (cardiac microtissues [1]): -4.123 | activation Z-score: Glioblastoma Multiforme Signaling (cardiac microtissues [1]): -2.333 | activation Z-score: HGF Signaling (cardiac microtissues [1]): -2.333 | activation Z-score: HIF1Î± Signaling (cardiac microtissues [1]): -3.464 | activation Z-score: HMGB1 Signaling (cardiac microtissues [1]): -3.357 | activation Z-score: Hepatic Fibrosis Signaling Pathway (cardiac microtissues [1]): -4.768 | activation Z-score: IL-6 Signaling (cardiac microtissues [1]): -2.309 | activation Z-score: IL-8 Signaling (cardiac microtissues [1]): -3.051 | activation Z-score: IL-13 Signaling Pathway (cardiac microtissues [1]): -2.496 | activation Z-score: IL-15 Production (cardiac microtissues [1]): -2.449 | activation Z-score: ILK Signaling (cardiac microtissues [1]): -3.357 | activation Z-score: Immunogenic Cell Death Signaling Pathway (cardiac microtissues [1]): -2.646 | activation Z-score: Inhibition of Angiogenesis by TSP1 (cardiac microtissues [1]): -2 | activation Z-score: Integrin Signaling (cardiac microtissues [1]): -3.606 | activation Z-score: Intrinsic Prothrombin Activation Pathway (cardiac microtissues [1]): -2 | activation Z-score: Kinetochore Metaphase Signaling Pathway (cardiac microtissues [1]): 3.266 | activation Z-score: LXR/RXR Activation (cardiac microtissues [1]): 0.905 | activation Z-score: Leukocyte Extravasation Signaling (cardiac microtissues [1]): -2.065 | activation Z-score: MIF Regulation of Innate Immunity (cardiac microtissues [1]): -2 | activation Z-score: MYC Mediated Apoptosis Signaling (cardiac microtissues [1]): -1.633 | activation Z-score: Macrophage Alternative Activation Signaling Pathway (cardiac microtissues [1]): -2.558 | activation Z-score: Oncostatin M Signaling (cardiac microtissues [1]): -2.236 | activation Z-score: Osteoarthritis Pathway (cardiac microtissues [1]): -2.711 | activation Z-score: Oxytocin Signaling Pathway (cardiac microtissues [1]): -2.324 | activation Z-score: PAK Signaling (cardiac microtissues [1]): -2.236 | activation Z-score: PPAR Signaling (cardiac microtissues [1]): 2.646 | activation Z-score: Pancreatic Adenocarcinoma Signaling (cardiac microtissues [1]): -2.121 | activation Z-score: Paxillin Signaling (cardiac microtissues [1]): -2 | activation Z-score: Production of Nitric Oxide and Reactive Oxygen Species in Macrophages (cardiac microtissues [1]): -3.051 | activation Z-score: Prostanoid Biosynthesis (cardiac microtissues [1]): -2 | activation Z-score: Pulmonary Fibrosis Idiopathic Signaling Pathway (cardiac microtissues [1]): -5.692 | activation Z-score: Pulmonary Healing Signaling Pathway (cardiac microtissues [1]): -2.449 | activation Z-score: Pyridoxal 5'-phosphate Salvage Pathway (cardiac microtissues [1]): 1.342 | activation Z-score: RAC Signaling (cardiac microtissues [1]): -1.89 | activation Z-score: RHOGDI Signaling (cardiac microtissues [1]): 3.606 | activation Z-score: Regulation Of The Epithelial Mesenchymal Transition By Growth Factors Pathway (cardiac microtissues [1]): -4.243 | activation Z-score: Regulation of Cellular Mechanics by Calpain Protease (cardiac microtissues [1]): -2.236 | activation Z-score: Regulation of eIF4 and p70S6K Signaling (cardiac microtissues [1]): -1.342 | activation Z-score: Renin-Angiotensin Signaling (cardiac microtissues [1]): -2.449 | activation Z-score: Ribonucleotide Reductase Signaling Pathway (cardiac microtissues [1]): -1.291 | activation Z-score: Role of JAK family kinases in IL-6-type Cytokine Signaling (cardiac microtissues [1]): -2.668 | activation Z-score: Role of NFAT in Cardiac Hypertrophy (cardiac microtissues [1]): -3.162 | activation Z-score: STAT3 Pathway (cardiac microtissues [1]): -1.414 | activation Z-score: Salvage Pathways of Pyrimidine Ribonucleotides (cardiac microtissues [1]): 1.134 | activation Z-score: Senescence Pathway (cardiac microtissues [1]): -3.3 | activation Z-score: Signaling by Rho Family GTPases (cardiac microtissues [1]): -3.638 | activation Z-score: TREM1 Signaling (cardiac microtissues [1]): -2.646 | activation Z-score: Type II Diabetes Mellitus Signaling (cardiac microtissues [1]): -1.342 | activation Z-score: White Adipose Tissue Browning Pathway (cardiac microtissues [1]): -2.714 | activation Z-score: Wound Healing Signaling Pathway (cardiac microtissues [1]): -4.964 | activation Z-score: iNOS Signaling (cardiac microtissues [1]): -2.236 | activity at 3.53 µM (cardiac microtissues [2]; gene ATAD3C, Run 1): 85.2% | activity at 3.53 µM (cardiac microtissues [2]; gene CDH13, Run 1): 81.7% | activity at 3.53 µM (cardiac microtissues [2]; gene CDH13, Run 2): 32.5% | activity at 3.53 µM (cardiac microtissues [2]; gene IL6, Run 1): 18.3% | activity at 3.53 µM (cardiac microtissues [2]; gene IL6, Run 2): 3.18% | activity at 3.53 µM (cardiac microtissues [2]; gene PTX3, Run 1): 46.8% | activity at 3.53 µM (cardiac microtissues [2]; gene PTX3, Run 2): 18.6% | activity at 3.53 µM (cardiac microtissues [2]; gene SLC7A5, Run 1): 87.2% | activity at 3.53 µM (cardiac microtissues [2]; gene SLC7A5, Run 2): 7.07% | activity at 3.53 µM (cardiac microtissues [2]; gene UCHL1, Run 1): 59.4% | activity at 3.53 µM (cardiac microtissues [2]; gene UCHL1, Run 2): 18.6% | 2^-ΔΔCt of Individual reps, Treated 1 (cardiac microtissues [2]; gene ATAD3C, Run 1): 0.6771 | 2^-ΔΔCt of Individual reps, Treated 2 (cardiac microtissues [2]; gene ATAD3C, Run 1): 0.9498 | 2^-ΔΔCt of Individual reps, Treated 3 (cardiac microtissues [2]; gene ATAD3C, Run 1): 0.9298 | Average 2^-ΔΔCt, Treated (cardiac microtissues [2]; gene ATAD3C, Run 1): 0.8522 | 2^-ΔΔCt of Individual reps, Treated 1 (cardiac microtissues [2]; gene CDH13, Run 1): 0.8001 | 2^-ΔΔCt of Individual reps, Treated 2 (cardiac microtissues [2]; gene CDH13, Run 1): 0.8203 | 2^-ΔΔCt of Individual reps, Treated 3 (cardiac microtissues [2]; gene CDH13, Run 1): 0.8552 | Average 2^-ΔΔCt, Treated (cardiac microtissues [2]; gene CDH13, Run 1): 0.8252 | 2^-ΔΔCt of Individual reps, Treated 1 (cardiac microtissues [2]; gene CDH13, Run 2): 0.3506 | 2^-ΔΔCt of Individual reps, Treated 2 (cardiac microtissues [2]; gene CDH13, Run 2): 0.356 | 2^-ΔΔCt of Individual reps, Treated 3 (cardiac microtissues [2]; gene CDH13, Run 2): 0.3542 | Average 2^-ΔΔCt, Treated (cardiac microtissues [2]; gene CDH13, Run 2): 0.3536 | 2^-ΔΔCt of Individual reps, Treated 1 (cardiac microtissues [2]; gene IL6, Run 1): 0.1962 | 2^-ΔΔCt of Individual reps, Treated 2 (cardiac microtissues [2]; gene IL6, Run 1): 0.1722 | 2^-ΔΔCt of Individual reps, Treated 3 (cardiac microtissues [2]; gene IL6, Run 1): 0.1837 | Average 2^-ΔΔCt, Treated (cardiac microtissues [2]; gene IL6, Run 1): 0.184 | 2^-ΔΔCt of Individual reps, Treated 1 (cardiac microtissues [2]; gene IL6, Run 2): 0.1296 | 2^-ΔΔCt of Individual reps, Treated 2 (cardiac microtissues [2]; gene IL6, Run 2): 0.008 | 2^-ΔΔCt of Individual reps, Treated 3 (cardiac microtissues [2]; gene IL6, Run 2): 0.00254 | Average 2^-ΔΔCt, Treated (cardiac microtissues [2]; gene IL6, Run 2): 0.04671 | 2^-ΔΔCt of Individual reps, Treated 1 (cardiac microtissues [2]; gene PTX3, Run 1): 0.5127 | 2^-ΔΔCt of Individual reps, Treated 2 (cardiac microtissues [2]; gene PTX3, Run 1): 0.4851 | 2^-ΔΔCt of Individual reps, Treated 3 (cardiac microtissues [2]; gene PTX3, Run 1): 0.4283 | Average 2^-ΔΔCt, Treated (cardiac microtissues [2]; gene PTX3, Run 1): 0.4754 | 2^-ΔΔCt of Individual reps, Treated 1 (cardiac microtissues [2]; gene PTX3, Run 2): 0.364 | 2^-ΔΔCt of Individual reps, Treated 2 (cardiac microtissues [2]; gene PTX3, Run 2): 0.159 | 2^-ΔΔCt of Individual reps, Treated 3 (cardiac microtissues [2]; gene PTX3, Run 2): 0.09578 | Average 2^-ΔΔCt, Treated (cardiac microtissues [2]; gene PTX3, Run 2): 0.2063 | 2^-ΔΔCt of Individual reps, Treated 1 (cardiac microtissues [2]; gene SLC7A5, Run 1): 0.9373 | 2^-ΔΔCt of Individual reps, Treated 2 (cardiac microtissues [2]; gene SLC7A5, Run 1): 0.8504 | 2^-ΔΔCt of Individual reps, Treated 3 (cardiac microtissues [2]; gene SLC7A5, Run 1): 0.8586 | Average 2^-ΔΔCt, Treated (cardiac microtissues [2]; gene SLC7A5, Run 1): 0.8821 | 2^-ΔΔCt of Individual reps, Treated 1 (cardiac microtissues [2]; gene SLC7A5, Run 2): 0.1881 | 2^-ΔΔCt of Individual reps, Treated 2 (cardiac microtissues [2]; gene SLC7A5, Run 2): 0.06312 | 2^-ΔΔCt of Individual reps, Treated 3 (cardiac microtissues [2]; gene SLC7A5, Run 2): 0.06588 | Average 2^-ΔΔCt, Treated (cardiac microtissues [2]; gene SLC7A5, Run 2): 0.1057 | 2^-ΔΔCt of Individual reps, Treated 1 (cardiac microtissues [2]; gene UCHL1, Run 1): 0.6206 | 2^-ΔΔCt of Individual reps, Treated 2 (cardiac microtissues [2]; gene UCHL1, Run 1): 0.6021 | 2^-ΔΔCt of Individual reps, Treated 3 (cardiac microtissues [2]; gene UCHL1, Run 1): 0.5702 | Average 2^-ΔΔCt, Treated (cardiac microtissues [2]; gene UCHL1, Run 1): 0.5976 | 2^-ΔΔCt of Individual reps, Treated 1 (cardiac microtissues [2]; gene UCHL1, Run 2): 0.3214 | 2^-ΔΔCt of Individual reps, Treated 2 (cardiac microtissues [2]; gene UCHL1, Run 2): 0.1175 | 2^-ΔΔCt of Individual reps, Treated 3 (cardiac microtissues [2]; gene UCHL1, Run 2): 0.1882 | Average 2^-ΔΔCt, Treated (cardiac microtissues [2]; gene UCHL1, Run 2): 0.209 | Transcriptomic high concentration (µM) = IC30 of ATP depletion (cardiac microtissues [3]): 3.53 µM | Structural cardiotoxin? ([4]; FDA label references heart failure or a decrease in left ventricular ejection fraction): Y | Functional cardiotoxin? ([4]; compound annotation): Y | number of significant differentially expressed genes, 6hr high (cardiac microtissues [5]; 6 hr, high concentration): 10 | number of significant differentially expressed genes, 6hr low (cardiac microtissues [5]; 6 hr, low concentration): 0 | number of significant differentially expressed genes, 48hr high (cardiac microtissues [5]; 48 hr, high concentration): 861 | number of significant differentially expressed genes, 48hr low (cardiac microtissues [5]; 48 hr, low concentration): 399 | number of significant differentially expressed genes, 72hr high (cardiac microtissues [5]; 72 hr, high concentration): 152 | number of significant differentially expressed genes, 72hr low (cardiac microtissues [5]; 72 hr, low concentration): 71
